Measurements: patent US20120029187A1, “HALOALKYLSULFONANILIDE DERIVATIVE” (Nissan Chemical Industries, Ltd., priority 2009, published 2012)

How the values were obtained:
Type in all cases: in vivo
[1] = system: large crabgrass; experiment: Test Example 4: herbicidal effect in foliage treatment; conditions: dose 3.2 g/a, three weeks after application
Procedure, shortened: (§1)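 A uniform foliar spray of emulsifiable concentrate, diluted with water to give the stated g/a dose, was applied to plants raised for 14 days from seed in sterilized diluvial soil at 25 to 30° C. Herbicidal effects were scored three weeks later.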

[2] = system: common ragweed; experiment: as above; conditions: dose 3.2 g/a, three weeks after application
Procedure, shortened: as §1

[3] = system: water foxtail; experiment: as above; conditions: dose 3.2 g/a, three weeks after application
Procedure, shortened: as §1

[4] = system: beadstraw; experiment: as above; conditions: dose 3.2 g/a, three weeks after application
Procedure, shortened: as §1

[5] = system: posumbu knotweed; experiment: as above; conditions: dose 3.2 g/a, three weeks after application
Procedure, shortened: as §1

[6] = system: common lambsquater; experiment: as above; conditions: dose 3.2 g/a, three weeks after application
Procedure, shortened: as §1

[7] = system: giant foxtail; experiment: as above; conditions: dose 3.2 g/a, three weeks after application
Procedure, shortened: as §1

[8] = system: Italian ryegrass; experiment: as above; conditions: dose 3.2 g/a, three weeks after application
Procedure, shortened: as §1

[9] = system: velvetleaf; experiment: as above; conditions: dose 3.2 g/a, three weeks after application
Procedure, shortened: as §1

[10] = system: barnyardgrass; experiment: as above; conditions: dose 3.2 g/a, three weeks after application
Procedure, shortened: as §1

[11] = system: redroot pigweed; experiment: as above; conditions: dose 3.2 g/a, three weeks after application
Procedure, shortened: as §1

[12] = system: common chickweed; experiment: as above; conditions: dose 3.2 g/a, three weeks after application
Procedure, shortened: as §1

[13] = system: transplanted rice; experiment: Test Example 1: preemergence treatment under submerged conditions, effect on crop; conditions: dose 2.52 g/a
Procedure, shortened: (§2)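 Alluvial soil flooded to 4 cm depth; barnyardgrass, bulrush and ducksalad sown and 2.5-leaf rice seedlings transplanted. Same day, water-diluted emulsifiable concentrates applied to the water surface at set doses (g/a). Kept at 25–30 °C in greenhouse; effects scored 0–5 by mortality after three weeks.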

[14] = system: large crabgrass; experiment: Test Example 3: herbicidal effects in soil treatment; conditions: dose 3.2 g/a
Procedure, shortened: (§3)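 Seeds were sown in sterilized diluvial soil and covered with about 1.5 cm of soil. Compounds, formulated as emulsifiable concentrates and diluted with water, were sprayed evenly over the soil surface at set doses in g/a. Herbicidal effect was scored on a rating scale three weeks later.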

[15] = system: common ragweed; experiment: as above; conditions: dose 3.2 g/a
Procedure, shortened: as §3

[16] = system: water foxtail; experiment: as above; conditions: dose 3.2 g/a
Procedure, shortened: as §3

[17] = system: posumbu knotweed; experiment: as above; conditions: dose 3.2 g/a
Procedure, shortened: as §3

[18] = system: common lambsquater; experiment: as above; conditions: dose 3.2 g/a
Procedure, shortened: as §3

[19] = system: giant foxtail; experiment: as above; conditions: dose 3.2 g/a
Procedure, shortened: as §3

[20] = system: Italian ryegrass; experiment: as above; conditions: dose 3.2 g/a
Procedure, shortened: as §3

[21] = system: velvetleaf; experiment: as above; conditions: dose 3.2 g/a
Procedure, shortened: as §3

[22] = system: barnyardgrass; experiment: as above; conditions: dose 3.2 g/a
Procedure, shortened: as §3

[23] = system: redroot pigweed; experiment: as above; conditions: dose 3.2 g/a
Procedure, shortened: as §3

[24] = system: common chickweed; experiment: as above; conditions: dose 3.2 g/a
Procedure, shortened: as §3

[25] = system: ducksalad; experiment: Test Example 2: herbicidal effects during the vegetation period under submerged conditions; conditions: treatment during the vegetation period under submerged conditions; dose 2.52 g/a
Procedure, shortened: (§4)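 Barnyardgrass, bulrush and ducksalad were co-sown in alluvial soil flooded to 4 cm and grown in a greenhouse at 25 to 30° C. At the 1- or 2-leaf stage, water-diluted emulsifiable concentrates went onto the water surface at set doses (g/a). Herbicidal effect was scored three weeks later on a graded scale.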

[26] = system: bulrush; experiment: as above; conditions: treatment during the vegetation period under submerged conditions; dose 2.52 g/a
Procedure, shortened: as §4

[27] = system: barnyardgrass; experiment: as above; conditions: treatment during the vegetation period under submerged conditions; dose 2.52 g/a
Procedure, shortened: as §4

[28] = system: ducksalad; experiment: Test Example 1: herbicidal effects in preemergence treatment under submerged conditions; conditions: dose 2.52 g/a
Procedure, shortened: as §2

[29] = system: bulrush; experiment: as above; conditions: dose 2.52 g/a
Procedure, shortened: as §2

[30] = system: barnyardgrass; experiment: as above; conditions: dose 2.52 g/a
Procedure, shortened: as §2

| SMILES | D: large crabgrass, herbicidal effect [1] | J: common ragweed, herbicidal effect [2] | G: water foxtail, herbicidal effect [3] | O: beadstraw, herbicidal effect [4] | M: posumbu knotweed, herbicidal effect [5] | L: common lambsquater, herbicidal effect [6] | E: giant foxtail, herbicidal effect [7] | H: Italian ryegrass, herbicidal effect [8] | I: velvetleaf, herbicidal effect [9] | A: barnyardgrass, herbicidal effect [10] | K: redroot pigweed, herbicidal effect [11] | N: common chickweed, herbicidal effect [12] | a: transplanted rice, effect on crop (evaluation scale 0-5) [13] | D: large crabgrass, herbicidal effect (evaluation scale 0-5) [14] | J: common ragweed, herbicidal effect (evaluation scale 0-5) [15] | G: water foxtail, herbicidal effect (evaluation scale 0-5) [16] | M: posumbu knotweed, herbicidal effect (evaluation scale 0-5) [17] | L: common lambsquater, herbicidal effect (evaluation scale 0-5) [18] | E: giant foxtail, herbicidal effect (evaluation scale 0-5) [19] | H: Italian ryegrass, herbicidal effect (evaluation scale 0-5) [20] | other results |
| --- | --- | --- | --- | --- | --- | --- | --- | --- | --- | --- | --- | --- | --- | --- | --- | --- | --- | --- | --- | --- | --- |
| CCOC(=O)N(c1ccccc1CN1COC(C)(C)C(Br)C1=O)S(=O)(=O)C(F)(F)F (centres unmarked) [II-39, 5-bromo-6,6-dimethyl-3-[2-(N-ethoxylcarbonyl-N-trifluoromethanesulfonyl)aminobenzyl]-1,3-oxazinan-4-one] | 4 (mortality of at least 70% and less than 90%) | 5 (mortality of 90% or above (nearly complete death)) | 5 (mortality of 90% or above (nearly complete death)) | 4 (mortality of at least 70% and less than 90%) | 3 (mortality of at least 40% and less than 70%) | 3 (mortality of at least 40% and less than 70%) | 5 (mortality of 90% or above (nearly complete death)) | 3 (mortality of at least 40% and less than 70%) | 5 (mortality of 90% or above (nearly complete death)) | 5 (mortality of 90% or above (nearly complete death)) | 4 (mortality of at least 70% and less than 90%) | 4 (mortality of at least 70% and less than 90%) | 0 (mortality of less than 5% (almost ineffective)) | 5 (mortality of 90% or above (nearly complete death)) | 4 (mortality of at least 70% and less than 90%) | 5 (mortality of 90% or above (nearly complete death)) | 5 (mortality of 90% or above (nearly complete death)) | 5 (mortality of 90% or above (nearly complete death)) | 5 (mortality of 90% or above (nearly complete death)) | 5 (mortality of 90% or above (nearly complete death)) | I: velvetleaf, herbicidal effect (evaluation scale 0-5) [21]: 5 (mortality of 90% or above (nearly complete death)); A: barnyardgrass, herbicidal effect (evaluation scale 0-5) [22]: 5 (mortality of 90% or above (nearly complete death)); K: redroot pigweed, herbicidal effect (evaluation scale 0-5) [23]: 1 (mortality of at least 5% and less than 20%); N: common chickweed, herbicidal effect (evaluation scale 0-5) [24]: 5 (mortality of 90% or above (nearly complete death)); C: ducksalad, herbicidal effect (evaluation scale 0-5) [25]: 5 (mortality of 90% or above (nearly complete death)); B: bulrush, herbicidal effect (evaluation scale 0-5) [26]: 5 (mortality of 90% or above (nearly complete death)); A: barnyardgrass, herbicidal effect (evaluation scale 0-5) [27]: 5 (mortality of 90% or above (nearly complete death)); C: ducksalad, herbicidal effect (evaluation scale 0-5) [28]: 5 (mortality of 90% or above (nearly complete death)); B: bulrush, herbicidal effect (evaluation scale 0-5) [29]: 5 (mortality of 90% or above (nearly complete death)); A: barnyardgrass, herbicidal effect (evaluation scale 0-5) [30]: 5 (mortality of 90% or above (nearly complete death)) |
| CCC(=O)N(c1ccccc1CN1COC(C)(C(F)(F)F)CC1=O)S(=O)(=O)C(F)(F)F (centres unmarked) [II-47] | 1 (mortality of at least 5% and less than 20%) | 2 (mortality of at least 20% and less than 40%) | 2 (mortality of at least 20% and less than 40%) | 4 (mortality of at least 70% and less than 90%) | 2 (mortality of at least 20% and less than 40%) | 0 (mortality of less than 5% (almost ineffective)) | 2 (mortality of at least 20% and less than 40%) | 0 (mortality of less than 5% (almost ineffective)) | 4 (mortality of at least 70% and less than 90%) | 4 (mortality of at least 70% and less than 90%) | 0 (mortality of less than 5% (almost ineffective)) | 3 (mortality of at least 40% and less than 70%) | 0 (mortality of less than 5% (almost ineffective)) | 5 (mortality of 90% or above (nearly complete death)) | 4 (mortality of at least 70% and less than 90%) | 5 (mortality of 90% or above (nearly complete death)) | 3 (mortality of at least 40% and less than 70%) | 3 (mortality of at least 40% and less than 70%) | 4 (mortality of at least 70% and less than 90%) | 3 (mortality of at least 40% and less than 70%) | I: velvetleaf, herbicidal effect (evaluation scale 0-5) [21]: 4 (mortality of at least 70% and less than 90%); A: barnyardgrass, herbicidal effect (evaluation scale 0-5) [22]: 5 (mortality of 90% or above (nearly complete death)); K: redroot pigweed, herbicidal effect (evaluation scale 0-5) [23]: 0 (mortality of less than 5% (almost ineffective)); C: ducksalad, herbicidal effect (evaluation scale 0-5) [25]: 5 (mortality of 90% or above (nearly complete death)); B: bulrush, herbicidal effect (evaluation scale 0-5) [26]: 5 (mortality of 90% or above (nearly complete death)); A: barnyardgrass, herbicidal effect (evaluation scale 0-5) [27]: 4 (mortality of at least 70% and less than 90%); C: ducksalad, herbicidal effect (evaluation scale 0-5) [28]: 5 (mortality of 90% or above (nearly complete death)); B: bulrush, herbicidal effect (evaluation scale 0-5) [29]: 5 (mortality of 90% or above (nearly complete death)); A: barnyardgrass, herbicidal effect (evaluation scale 0-5) [30]: 5 (mortality of 90% or above (nearly complete death)) |
